CN=C(NC#N)NCCSCc1nc[nH]c1C
solubility (mole fraction)
Conditions | 281.04 K | 285.25 K | 289.65 K | 292.46 K | 296.7 K | 297.26 K | 306.76 K | 309.1 K | 311.34 K
in ethanol | – | – | – | – | – | 0.005 | 0.0081 | 0.0091 | 0.0101
in methanol | 0.0082 | 0.0098 | 0.0119 | 0.0138 | 0.0166 | – | – | – | –

CC(=O)Oc1ccccc1C(=O)O
Conditions | solubility (mole fraction)
in ethanol, 274.95 K | 0.0246
in ethanol, 292.45 K | 0.0487
in isopropanol, 274.9 K | 0.0163
in isopropanol, 281.7 K | 0.0223
in isopropanol, 283.75 K | 0.0245
in n-octanol, 272.14 K | 0.01
in n-octanol, 281.45 K | 0.0152
in n-octanol, 291.53 K | 0.0235
in n-octanol, 307.12 K | 0.0434

CC(=O)Nc1ccc(O)cc1
Conditions | solubility (mole fraction)
in ethanol, 284.49 K | 0.0444
in ethanol, 288.38 K | 0.0471
in ethanol, 293.54 K | 0.0508
in ethanol, 295.69 K | 0.0539
in isopropanol, 273.5 K | 0.0256
in isopropanol, 289.99 K | 0.0372
in isopropanol, 302.5 K | 0.0473
in n-octanol, 262.78 K | 0.0057
in n-octanol, 275.42 K | 0.0082
in n-octanol, 285.72 K | 0.0104
in n-octanol, 301.15 K | 0.0151

Source: BigSolDB 2.1
